Results published in patent US20250179078A1, “INHIBITORS OF NLRP3” (PTC THERAPEUTICS, INC., priority 2022, published 2025).

molecular target: T1, NLRP3 (Homo sapiens, UniProt Q96P20); test: IL-1β Secretion Assay (NLRP3-dependent IL1β secretion in THP1 cells); assay type: cell-based; conditions: PMA-differentiated THP-1 cells; compounds incubated 20 h; 2.5 μM Nigericin 3 h; HTRF IL-1β readout; read-out: IC50 IL-1β Inhibition
T1 construct: host or cells: THP-1 cells differentiated with PMA
Outline: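 IL-1β in conditioned media, measured by HTRF after 3 h 2.5 μM nigericin stimulation, gave % inhibition fitted logistically for IC50. Before that, PMA-differentiated (100 ng/mL, 24 h) THP-1 cells were preincubated 20 h with 7 compound concentrations (3-fold serial, DMSO 1:200).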

T1 sequence (Q96P20 whole entry): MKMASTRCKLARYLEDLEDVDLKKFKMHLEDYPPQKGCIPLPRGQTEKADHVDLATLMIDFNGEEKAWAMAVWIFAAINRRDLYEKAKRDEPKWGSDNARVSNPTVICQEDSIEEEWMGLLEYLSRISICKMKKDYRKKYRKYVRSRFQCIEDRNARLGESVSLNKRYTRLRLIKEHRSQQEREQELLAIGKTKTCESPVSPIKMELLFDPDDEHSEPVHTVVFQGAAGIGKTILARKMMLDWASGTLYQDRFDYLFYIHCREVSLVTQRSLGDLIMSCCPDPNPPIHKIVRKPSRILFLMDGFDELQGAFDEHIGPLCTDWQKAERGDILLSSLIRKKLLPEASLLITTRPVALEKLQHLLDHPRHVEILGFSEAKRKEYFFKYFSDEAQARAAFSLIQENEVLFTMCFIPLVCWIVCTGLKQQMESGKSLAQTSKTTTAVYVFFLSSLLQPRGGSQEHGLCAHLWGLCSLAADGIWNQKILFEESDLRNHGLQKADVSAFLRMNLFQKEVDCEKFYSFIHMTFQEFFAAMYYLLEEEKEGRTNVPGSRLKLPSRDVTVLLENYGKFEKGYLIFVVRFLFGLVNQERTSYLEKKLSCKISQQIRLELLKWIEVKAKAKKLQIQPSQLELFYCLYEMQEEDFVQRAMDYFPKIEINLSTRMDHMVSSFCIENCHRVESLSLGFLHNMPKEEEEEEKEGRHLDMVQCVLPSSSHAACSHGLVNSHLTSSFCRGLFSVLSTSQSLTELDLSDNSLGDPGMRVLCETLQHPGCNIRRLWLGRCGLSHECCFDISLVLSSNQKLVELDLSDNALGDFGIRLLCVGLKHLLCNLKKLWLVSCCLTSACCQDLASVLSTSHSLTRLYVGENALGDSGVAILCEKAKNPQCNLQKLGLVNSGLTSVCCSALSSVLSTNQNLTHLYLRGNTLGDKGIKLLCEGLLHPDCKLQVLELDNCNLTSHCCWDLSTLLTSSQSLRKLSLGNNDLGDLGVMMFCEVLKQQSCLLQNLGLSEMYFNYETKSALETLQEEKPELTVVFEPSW

| IC50 | Structure (SMILES) |
| --- | --- |
| 1 to 10 nM | COc1ccc(-c2nnc(N[C@H]3C[C@@](C)(O)C3)n3cccc23)c(CC(F)(F)F)c1 [Compound 1, (1s,3s)-3-({1-[4-methoxy-2-(2,2,2-trifluoroethyl)phenyl]pyrrolo[1,2-d][1,2,4]triazin-4-yl}amino)-1-methylcyclobutan-1-ol] |
| < 1 nM | CCN1CC[C@@H](O)[C@@H](Nc2nnc(-c3ccc(C(F)(F)F)cc3OC(F)F)c3cccn23)C1 [Compound 48, (3S,4R)-3-({1-[2-(difluoromethoxy)-4-(trifluoromethyl)phenyl]pyrrolo[1,2-d][1,2,4]triazin-4-yl}amino)-1-ethylpiperidin-4-ol] |
| 100 to 300 nM | COc1ccc(-c2nnc(Nc3cc[nH]n3)n3cccc23)c(C2CC2)c1 [Compound 105, 1-(2-cyclopropyl-4-methoxyphenyl)-N-(1H-pyrazol-3-yl)pyrrolo[1,2-d][1,2,4]triazin-4-amine] |
| 1 to 10 nM | Cc1ccc(-c2nnc(N[C@@H]3CCCN(C)C3)n3nc(C)cc23)c(OC(F)F)c1 [Compound 361, 4-[2-(difluoromethoxy)-4-methylphenyl]-2-methyl-N-[(3R)-1-methylpiperidin-3-yl]pyrazolo[1,5-d][1,2,4]triazin-7-amine] |
| 10 to 100 nM | COc1ccc(-c2nnc(N[C@@H]3CCCC[C@H]3O)n3nc(C)cc23)c(OC(F)(F)F)c1 [Compound 392, (1R,2R)-2-({4-[4-methoxy-2-(trifluoromethoxy)phenyl]-2-methylpyrazolo[1,5-d][1,2,4]triazin-7-yl}amino)cyclohexan-1-ol] |
| < 1 nM | CCN1CCC[C@@H](Nc2nnc(-c3ccc(C(F)(F)F)cc3OCF)c3cccn23)C1 [Compound 169, N-[(3R)-1-ethylpiperidin-3-yl]-1-[2-(fluoromethoxy)-4-(trifluoromethyl)phenyl]pyrrolo[1,2-d][1,2,4]triazin-4-amine] |
| < 1 nM | OCCN1CCC[C@@H](Nc2nnc(-c3ccc(C(F)(F)F)cc3OC(F)(F)F)c3cccn23)C1 [Compound 120, 2-[(3R)-3-({1-[2-(trifluoromethoxy)-4-(trifluoromethyl)phenyl]pyrrolo[1,2-d][1,2,4]triazin-4-yl}amino)piperidin-1-yl]ethan-1-ol] |
| 10 to 100 nM | COc1ccc(-c2nnc(N[C@@H]3CCCN(C)C3)n3cccc23)c(Br)c1 [Compound 47, 1-(2-bromo-4-methoxyphenyl)-N-[(3R)-1-methylpiperidin-3-yl]pyrrolo[1,2-d][1,2,4]triazin-4-amine] |
| 10 to 100 nM | COc1ccc(-c2nnc(N[C@@H]3CCOC[C@H]3O)n3cncc23)c(OC(F)(F)F)c1 [Compound 292, (3S,4R)-4-({1-[4-methoxy-2-(trifluoromethoxy)phenyl]imidazo[1,5-d][1,2,4]triazin-4-yl}amino)oxan-3-ol] |

More lines, now with the values behind:

| Structure (SMILES) | IC50 |
| --- | --- |
| O[C@@H]1COCC[C@H]1Nc1nnc(-c2ccc(OC(F)F)cc2OC(F)(F)F)c2cncn12 [Compound 331, (3S,4R)-4-({1-[4-(difluoromethoxy)-2-(trifluoromethoxy)phenyl]imidazo[1,5-d][1,2,4]triazin-4-yl}amino)oxan-3-ol] | 10 to 100 nM |
| C[C@]1(O)C[C@@H](Nc2nnc(-c3ccc(Br)cc3C(F)(F)F)c3cncn23)C1 [Compound 204, (1s,3s)-3-({1-[4-bromo-2-(trifluoromethyl)phenyl]imidazo[1,5-d][1,2,4]triazin-4-yl}amino)-1-methylcyclobutan-1-ol] | 1 to 10 nM |
| COc1cccc(C(C)Nc2nnc(-c3ccc(OC)cc3C(F)(F)F)c3c(F)ccn23)c1 (stereo not shown) [Compound 148, 8-fluoro-N-[1-(3-methoxyphenyl)ethyl]-1-[4-methoxy-2-(trifluoromethyl)phenyl]pyrrolo[1,2-d][1,2,4]triazin-4-amine] | 100 to 300 nM |
| COc1ccc(-c2nnc(N[C@@H]3C[C@@H](F)CN(C)C3)n3cccc23)c(OC(F)(F)F)c1 [Compound 60, N-[(3R,5R)-5-fluoro-1-methylpiperidin-3-yl]-1-[4-methoxy-2-(trifluoromethoxy)phenyl]pyrrolo[1,2-d][1,2,4]triazin-4-amine] | 1 to 10 nM |
| CCN1CCC[C@@H](Nc2nnc(-c3ccc(OC)cc3C(F)(F)F)c3c(F)ccn23)C1 [Compound 17, N-[(3R)-1-ethylpiperidin-3-yl]-8-fluoro-1-[4-methoxy-2-(trifluoromethyl)phenyl]pyrrolo[1,2-d][1,2,4]triazin-4-amine] | 1 to 10 nM |
| C[C@]1(O)C[C@@H](Nc2nnc(-c3ccc(C(F)(F)F)cc3OC(F)(F)F)c3cncn23)C1 [Compound 241, (1s,3s)-1-methyl-3-({1-[2-(trifluoromethoxy)-4-(trifluoromethyl)phenyl]imidazo[1,5-d][1,2,4]triazin-4-yl}amino)cyclobutan-1-ol] | < 1 nM |
| COc1ccc(-c2nnc(NC(C)c3cccc(O)c3)n3cncc23)c(OC(F)(F)F)c1 (single isomer, unassigned) [Compound 247] | < 1 nM |
| Cc1cc2c(-c3ccc(C(F)(F)F)cc3OC(F)(F)F)nnc(N[C@@H]3CCCC[C@H]3O)n2n1 [Compound 382, (1R,2R)-2-({2-methyl-4-[2-(trifluoromethoxy)-4-(trifluoromethyl)phenyl]pyrazolo[1,5-d][1,2,4]triazin-7-yl}amino)cyclohexan-1-ol] | 10 to 100 nM |
| CCN1CCC[C@@H](Nc2nnc(-c3ccc(C)cc3OC(F)F)c3cccn23)C1 [Compound 34, 1-[2-(difluoromethoxy)-4-methylphenyl]-N-[(3R)-1-ethylpiperidin-3-yl]pyrrolo[1,2-d][1,2,4]triazin-4-amine] | 1 to 10 nM |
| FC(F)Oc1cc(Cl)ccc1-c1nnc(N[C@@H]2CCCOC2)n2cncc12 [Compound 189, 1-[4-chloro-2-(difluoromethoxy)phenyl]-N-[(3R)-oxan-3-yl]imidazo[1,5-d][1,2,4]triazin-4-amine] | 10 to 100 nM |
| COc1ccc(-c2nnc(N[C@@H]3CCOC[C@H]3O)n3cc(C)cc23)c(OC(F)(F)F)c1 [Compound 165, (3S,4R)-4-({1-[4-methoxy-2-(trifluoromethoxy)phenyl]-7-methylpyrrolo[1,2-d][1,2,4]triazin-4-yl}amino)oxan-3-ol] | 1 to 10 nM |
| CCN1CCC[C@@H](Nc2nnc(-c3ccc(OC)cc3OC(F)(F)F)c3cccn23)C1 [Compound 59] | < 1 nM |
| COc1ccc(-c2nnc(N[C@@H]3CCCN(C)C3)n3ccc(F)c23)c(OC(F)F)c1 [Compound 55, 1-[2-(difluoromethoxy)-4-methoxyphenyl]-8-fluoro-N-[(3R)-1-methylpiperidin-3-yl]pyrrolo[1,2-d][1,2,4]triazin-4-amine] | 10 to 100 nM |
| CC(Nc1nnc(-c2ccc(C3CC3)cc2CC(F)(F)F)c2cncn12)c1cccc(O)c1 (stereo not shown) [Compound 354, 3-[1-({1-[4-cyclopropyl-2-(2,2,2-trifluoroethyl)phenyl]imidazo[1,5-d][1,2,4]triazin-4-yl}amino)ethyl]phenol] | 1 to 10 nM |
| O[C@H]1CCOC[C@@H]1Nc1nnc(-c2ccc(C(F)(F)F)cc2C(F)(F)F)c2cncn12 [Compound 274, (3S,4S)-3-({1-[2,4-bis(trifluoromethyl)phenyl]imidazo[1,5-d][1,2,4]triazin-4-yl}amino)oxan-4-ol] | 10 to 100 nM |
| OCCN1CCC[C@@H](Nc2nnc(-c3ccc(C(F)(F)F)cc3OC3CC3)c3cccn23)C1 [Compound 179, 2-[(3R)-3-({1-[2-(cyclopropyloxy)-4-(trifluoromethyl)phenyl]pyrrolo[1,2-d][1,2,4]triazin-4-yl}amino)piperidin-1-yl]ethan-1-ol] | 10 to 100 nM |
